Data set [1] relates to Human erythroleukemia cells. Briefly: Fetal globin mRNA in erythroleukemia cells by primer extension. It is filed as cell-based. Conditions: 1.0 mM, 4 days. On the procedure: Compounds were tested for increased expression of the human globin genes in human erythroid cells. In addition, as the cell line being tested is a tumor cell line, the assay determines if differentiation, a growth inhibitory effect on cancer cells, is induced by the compounds tested. Human erythroleukemia cells were cultured in RPMI media with 10% fetal calf serum alone or with treatment with various compounds for 4 days. Globin mRNA was quantitated by primer extension analysis. Fetal globin mRNA was compared to the amount of fetal globin mRNA produced in untreated cells during the same culture period. The quantitation was expressed as a percent of alpha globin mRNA which was constant. Results are expressed proportional to α-globin mRNA (Table 3).

A further data set deals with anemic juvenile baboons. Briefly: In vivo reticulocyte proliferation and globin expression in phlebotomized anemic baboons. Details: species or system baboon. As to the method:
Experiments were performed to determine if administration of the chemical compositions could induce fetal globin gene expression in an in vivo model similar to humans (S. P. Perrin et al., Brit. J. Haematol. 88:555-61, 1994). Briefly, chemicals were prepared as sterile pharmaceutical solutions in pH adjusted sterile water. A variety of chemical compositions were administered sequentially to some baboons. After administration of one compound, a wash-out period with no compound administration was maintained until reticulocytes returned to base line prior to administration of the next compound. This was done, at least partly, to compare the magnitude of response which occurred within the same individual animal to different compounds.
Briefly, juvenile female baboons (2 years old) were catheterized with arterial and venous catheters and phlebotomized gradually every day to maintain a moderate anemia of 7.0 to 7.5 grams hemoglobin/dl. Fetal reticulocytes, the newly produced red blood cells containing fetal globin, were assayed using a monoclonal antibody against fetal globin (HbF) as described by G. Dover et al. (Blood 67:735-38, 1986). Briefly, blood was stained with two antibodies, one specific for reticulocytes and another against fetal globin protein. The amount of antibody bound cells was determined by FACS analysis. Globin chain synthesis was assayed as described by J. B. Clegg et al. (J. Mol. Biol. 19:91-108, 1966). Briefly, reticulocytes were radio-labeled with ^3H-leucine which was incorporated in equal proportions into actively synthesized globin chains. After incubation in leucine-free media, cells were washed, and globin proteins were separated and purified by column chromatography. Radioactivity incorporated into each peak is compared and the ratios of gamma to gamma plus beta globin calculated. Each animal served as its own control with baseline monitoring assays performed for 4-6 weeks before any drug was administered. Phlebotomy was continued daily, so that peripheral HbF levels in the animals were not considered to be accurate over the short treatment time-frames and were not monitored. Safety monitoring was performed by frequent physical examinations, quantitation of food eaten, activity and frequent chemistry and hematology monitoring. Complete blood counts were assayed before, during and after treatment. Results presented were not adjusted to account for the daily phlebotomy.

The subject of data set [2] is erythroid progenitor cells cultured from human cord blood. Briefly: Fetal globin expression in human cell cultures (3H-leucine labelled globin chains, densitometry). The format is cell-based. The conditions noted are these: for Gamma Increase: Exp. B, 12-13 days. As to the method:
Compositions were tested for activity in inducing fetal globin expression and protein production in erythroid progenitor cells cultured from human cord blood and analyzed as described by S. P. Perrine et al. (Blood 74: 454-60, 1989). Briefly, mononuclear cells were cultured in IMDM with 30% fetal calf serum and 2 units erythropoietin per ml to induce erythroid differentiation. Colonies were harvested on day 12-13, incubated with radio-labelled (^3H) leucine, and further incubated in leucine-free media, still in the presence of compounds, overnight. Globin composition in the erythroid cells was analyzed by laser densitometry of electrophoretically separated globin chains stained with Coomassie blue, and by autoradiography. Treated cells were incubated for 12-13 days (Table 2, Experiments A and B) or overnight (Table 2, Experiment C) in the presence of the indicated compounds and compared to untreated control cells cultured from the same human subject.

Data set [3] deals with proximal promoter of the gamma globin gene in K562 cells. Kind of data set: Gamma globin promoter-neomycin (NEO) transfection, colony survival in G418. The format is cell-based, human. The conditions noted are these: 1 mM, 8 weeks. On the procedure:
Gamma globin promoter-neomycin transfection experiments were performed to determine if compounds act by inducing an increase in activity from the proximal promoter of the gamma globin gene. Constructs containing 61 by of the proximal gamma globin promoter were linked to the reporter gene for neomycin phosphotransferase (NEO) and transfected into permissive K562 cells by electroporation. After 18 hours, transfected cells were passed at 10^3 cells per well into RPMI media containing G418 (neomycin), which kills all mammalian cells unless the gene for NEO is expressed. Phenoxyacetic acid and thiophenoxyacetic acid were added to some of the cells plated into the RPMI/G418 media at concentrations of 1 mM. Cultures were incubated for 8 weeks with media changes performed as needed. Colonies which survived and grew in the presence of G418 were scored and the number of such colonies was compared to those generated when the cells were plated into G418 media without the test compounds. No colonies in the 24 wells survived in the absence of compounds. There was a greater than 6-fold (>600%) increase in proportions of colonies surviving the presence of phenoxyacetic acid (6/24 wells) and a three-fold (300%) increase in survival in the presence of thiophenoxyacetic acid (3/24 wells).

Data set [4] relates to system A transport in K562 cells and nucleated erythroblasts from fetal liver. Kind of data set: System A (neutral amino acid) transport, 3H-MAIB uptake. It is filed as cell-based, human. Conditions: 1 hour incubation; FIG. 12. As to the method:
Inhibition of nutrient uptake is undesirable for treatment of anemias. Methyl aminoisobutyric acid (MAIB) labeled with tritium (^3H) is normally taken up by system A amino acid transport. Cold (unlabeled) compounds were added to cultures containing ^3H-MAIB and incubated for 1 hour. Cells were harvested and the amount of ^3H taken up by cells was quantitated by scintillation counting.

Structures are written as SMILES.

Turning to `CCCC(=O)OCC(O)CO` (stereo not shown) [MB, monobutyrin], in data set [1], the “induction of fetal globin mRNA in human cells” value is given as “significantly increased”. In data set [1] (untreated 0.46), the “Gamma/Alpha (fetal globin mRNA proportional to α-globin mRNA)” value is recorded as 0.73. Besides, the “Gamma Globin mRNA (increase ↑)” value in data set [1] (versus untreated) worked out at 26% ↑. For the same compound, the “fetal reticulocytes above basal levels” value in the data set with anemic juvenile baboons (intravenous each day, 4 days, 500 to 2,000 mg/kg) came out at 220%. The “fetal reticulocytes after treatment” value in the data set on anemic juvenile baboons (intravenous each day, 4 days, 500 to 2,000 mg/kg, from 12%) was 27%.
With `CC(CO)C(N)=O` (stereo not shown) [MHPP, 2 methyl-3-hydroxypropionamide, reference compound], the “Gamma Increase” value is recorded as 2.0% in data set [2] (0.05 mM) and −3.5% in data set [2] (1.0 mM). Besides, the entries for the “expression of fetal globin (FIG. 4)” value in data set [2] (concentrations above 0.25 mM) and in data set [2] (concentrations below 0.25 mM) were “decreased the expression of fetal globin” and “increased fetal globin expression”, respectively.
As to `O=C(O)CSc1ccccc1` [thiophenoxyacetic acid], the results for the “increase in proportions of colonies surviving G418” value in data set [3] and in data set [3] (no colonies without compounds) were 300% and “three-fold”, respectively.
`CCCC(=O)OCC(COC(=O)CCC)OC(=O)CCC` [tributyrin]: the “gamma globin expression after treatment” value with anemic juvenile baboons (intravenous 3 days, 500 to 750 mg/kg per day, from 0%) was “about 2.2 % of total non-alpha globin expression”. For the same compound, the “fetal reticulocytes after treatment” value with anemic juvenile baboons (intravenous 3 days, 500 to 750 mg/kg per day, from 10%) is listed as 14%.
On to `CC(=Cc1ccccc1)C(=O)O` [α-methyl cinnamic acid], for which the “system A transport of amino acids (3H-MAIB uptake)” value in data set [4] was “do not significantly alter”.
As to `CC(Cc1ccccc1)C(=O)O` (stereo not drawn) [α-methyl hydrocinnamic acid], the “rise of total hemoglobin” value in the data set on anemic juvenile baboons (baboon, infused 8 h/day, 5 days: 500 mg/kg 2 days, 700 mg/kg 2 days, 1,000 mg/kg 1 day, over 3 days) came to 1.5 grams/dl; in the data set on anemic juvenile baboons (second baboon, 500-700 mg/kg, 5 days) it was 1.4 grams. Further, in the data set on anemic juvenile baboons (same regimen (500/700/1,000 mg/kg, 5 days), rose from 2.28), the “red blood cell count after treatment” value is reported as 3.53 ×10^6 red blood cells per microliter. For the same compound, the “total number of reticulocytes after treatment” value with anemic juvenile baboons (same regimen (500/700/1,000 mg/kg, 5 days), rose from 5.6%) was found to be 11%. In addition, the “total hemoglobin after treatment” value turned out to be 7.9 grams/dl with anemic juvenile baboons (same regimen (500/700/1,000 mg/kg, 5 days), rose from 6.4) and 6.0 g/dL with anemic juvenile baboons (second baboon, 500-700 mg/kg, 5 days, from 4.6). In addition, the “packed red blood cell volume after treatment” value in the data set with anemic juvenile baboons (same regimen (500/700/1,000 mg/kg, 5 days), rose from 19.5%) is 31.2 % of total blood volume; in the data set with anemic juvenile baboons (second baboon, 500-700 mg/kg, 5 days, from 14.5%), 20.2%. Moreover, the “platelet count after treatment” value in the data set on anemic juvenile baboons (same regimen (500/700/1,000 mg/kg, 5 days), rose from 26.7) is given as 46.8 ×10^4 cells/μl. Moreover, the “total fetal globin synthesis after treatment” value with anemic juvenile baboons (second baboon, 500 mg/kg 8 h, 700 mg/kg 8 h, 700 mg/kg 2, 4 and 6 h, after 5 days, from 4.0%) came out at 10.8%. Further, the “red blood cell counts after treatment” value in the data set on anemic juvenile baboons (second baboon, 500-700 mg/kg, 5 days, from 2.3×10^6) is given as 2.82×10^6. The “white blood cell counts, maximum” value in the data set with anemic juvenile baboons (second baboon, 500-700 mg/kg, 5 days, from 8,700) was 14,300. Further, the “platelet counts, high” value with anemic juvenile baboons (second baboon, 500-700 mg/kg, 5 days, from 328,000) was 486,000. In the data set on anemic juvenile baboons (third baboon, 5 days), the adverse effects result is reported as “No adverse affects were observed”. Moreover, the “fetal globin protein synthesis after treatment” value in the data set on anemic juvenile baboons (third baboon, after 5 days, from 0%) is on record as 6.2 % of non-alpha globin. Further, in the data set with anemic juvenile baboons (third baboon, same dose, after 5 days (FIG. 8), from 0%), the “fetal hemoglobin producing reticulocytes after treatment” value is listed as 10%. Also, in data set [4], the “system A transport of amino acids (3H-MAIB uptake)” value is “caused no significant inhibition and actually increased uptake of nutrients into cells”.

These data come from patent US7910624B1, “Compositions for the treatment of blood disorders” (The Trustees of Boston University, priority 1995, dated 2011).
